What was measured:
PXR nuclear receptor = biological target: T1, PXR nuclear receptor (Homo sapiens, UniProt O75469); test: CYP (PXR) assay: PXR nuclear receptor activation in DPX2 reporter cells; type: cell-based; details: fold PXR activation, 24 h
T1 construct: expressed in transfected cells; host or cells: DPX2 (stably transfected human hepatoma cells)
T1 sequence (O75469 1-434): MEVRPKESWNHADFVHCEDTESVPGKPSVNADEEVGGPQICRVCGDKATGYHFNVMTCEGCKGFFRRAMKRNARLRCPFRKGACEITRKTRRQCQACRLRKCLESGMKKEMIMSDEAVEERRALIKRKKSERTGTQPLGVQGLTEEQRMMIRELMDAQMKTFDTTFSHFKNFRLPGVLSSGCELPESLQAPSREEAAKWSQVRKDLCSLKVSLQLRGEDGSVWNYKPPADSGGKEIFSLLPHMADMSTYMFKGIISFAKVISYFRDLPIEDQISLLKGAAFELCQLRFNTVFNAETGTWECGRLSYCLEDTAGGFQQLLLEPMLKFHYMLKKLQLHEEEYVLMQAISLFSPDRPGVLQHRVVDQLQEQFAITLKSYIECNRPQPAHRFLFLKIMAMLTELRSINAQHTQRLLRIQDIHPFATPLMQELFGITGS
Protocol: CYP (PXR) Assay: PXR nuclear receptor activation utilizing stably-transfected human hepatoma cell lines (DPX2) were seeded in a 96-well plate. Twenty-four hours after seeding, the cells were treated with selected concentrations of compounds in duplicate wells, and cells then returned to the incubator for an additional 24 h. At the end of this incubation period, the number of viable cells/well were determined using Promega's Cell Titer Fluor cytotoxicity assay. Subsequently, Promega's ONE-Glo were added to the same wells and reporter gene activity were assessed. The average luminescent units for each compound dose of two replicates were divided by the average for the DMSO solvent control to determine the fold-induction. In accordance with industry standard, a threshold of ≥2.5-fold was used to flag compounds that have in vivo CYP induction risk.

Rat PK, oral gavage = type: in vivo, Sprague-Dawley rats; details: male, Sprague-Dawley, rat, po, 10 mg/kg, oral gavage 10 mg/kg; for blood plasma ratio: whole blood and plasma, AUClast in blood divided by AUClast in plasma, rats; for half-life: whole blood, fasted male Sprague-Dawley rats, 0.5% methylcellulose suspension, blood
Protocol: Rat PK: A group of fasted male Sprague-Dawley rats were dosed via oral gavage at 10 mg/kg with test articles formulated in 0.5% methylcellulose suspension. Blood samples were collected through jugular vein at pre-selected time points. Blood samples were prepared by protein precipitation with ACN, vortexed and then centrifuged before supernatants were transferred for bioanalysis. Test article concentrations were measured by HPLC-MS-MS. Pharmacokinetic parameters were calculated using non-compartment analysis. The blood/plasma ratio was calculated by dividing the AUClast (i.e., the area under the curve calculated from t=0 to the last detectable time-point) in blood by the AUClast in plasma. The T1/2 was calculated via a linear regression of the terminal phase of the blood-time concentration profile.

Hb = biological target: T2, Hb (Homo sapiens, UniProt P68871+P69905); test: Whole blood assay: oxygen equilibrium curves (Hemox Analyzer), change in p50; type: cell-based; details: whole blood incubated 1 h at 37° C., equimolar ratio of hemoglobin to compound
T2 construct: from tissue; host or cells: whole blood
T2 sequence (P69905 2-142 limits assumed): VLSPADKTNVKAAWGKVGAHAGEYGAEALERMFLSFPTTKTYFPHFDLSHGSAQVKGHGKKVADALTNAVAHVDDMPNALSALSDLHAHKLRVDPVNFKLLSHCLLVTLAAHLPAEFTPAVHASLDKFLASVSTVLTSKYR
T2 sequence (P68871 2-147 limits assumed): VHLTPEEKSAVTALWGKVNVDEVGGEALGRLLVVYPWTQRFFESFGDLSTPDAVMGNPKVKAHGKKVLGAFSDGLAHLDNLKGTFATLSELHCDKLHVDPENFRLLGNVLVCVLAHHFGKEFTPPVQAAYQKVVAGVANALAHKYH
Protocol: Whole blood assay: Oxygen equilibrium curves (OECs) were collected using a TCS Hemox Analyzer (TCS Scientific Company, New Hope, Pa., USA) to measure changes in the binding affinity of O2 to Hb. Whole blood was incubated for 1 h at 37° C. with the indicated compounds in an equimolar ratio of hemoglobin to compound and diluted into TES (2-[[1,3-dihydroxy-2-(hydroxymethyl)propan-2-yl]amino]ethanesulfonic acid)/saline buffer prior to measurements. For example, for whole blood at 20% hematocrit [Hct], which corresponds to 1 mM Hb, a compound concentration of 1 mM was used (for example, for compounds 1-5), and the incubated sample diluted 50- to 100-fold. The concentration for compounds 6-44 (Diastereomers 1 and 2) varied but remained in equimolar ratio to hemoglobin. The diluted samples were then oxygenated with compressed air within the Hemox Analyzer and the OECs were collected during deoxygenation as previously described (Guarnone et al., Haematologica, 1995, 80, 426-430). p 50 (partial pressure of O2 at which Hb is 50% saturated with O2) values were obtained using a non-linear regression analysis. Percentage change in p50 [Δp50(%)] was calculated as follows: Δp50(%)=[(p50 of control)−p50 with compound)/p50 control]×100.

Row | Structure (SMILES) | CYP (PXR) Flag (PXR nuclear receptor; at 25 μM) | CYP (PXR) Flag (PXR nuclear receptor; at 30 μM) | blood plasma ratio (Rat PK, oral gavage) | half-life (Rat PK, oral gavage) | Delta-p50 (%) (Hb)
1 | Cc1ncccc1C(=O)N1CCCC[C@H]1COc1cccc(O)c1C=O [Reference Compound C, reference compound] | Y^1 (PXR activation ≥ 2.5-fold) | – | – | – | –
2 | O=Cc1c(O)cccc1OC[C@@H]1COCCN1C(=O)c1ccccc1 [Reference Compound B, reference compound] | – | Y (PXR activation ≥ 2.5-fold) | 98 | 29.8 h | –
3 | O=Cc1c(O)cccc1OC[C@@H]1CCCCN1C(=O)c1cccnc1 [Reference Compound A, reference compound] | – | Y (PXR activation ≥ 2.5-fold) | 75 | 29 h | –
4 | O=Cc1c(O)cccc1OC[C@@H]1COCCN1C(=O)c1cccnc1CCO [Compound 8, (S)-2-hydroxy-6-((4-(2-(2-hydroxyethyl)nicotinoyl)morpholin-3-yl)methoxy)benzaldehyde] | – | N (PXR activation < 2.5-fold) | 105 | 69 h | 79.8%
5 | O=Cc1c(O)cccc1OCC1CSCCN1C(=O)c1cccnc1CO (single isomer, unassigned) [Compound 13 (Enantiomer 1), 2-hydroxy-6-((4-(2-(hydroxymethyl)nicotinoyl)-thiomorpholin-3-yl)-methoxy)benzaldehyde] | – | N (PXR activation < 2.5-fold) | 230 | 88 h | 80.6%
6 | O=Cc1c(O)cccc1OC[C@@H]1CCCCN1C(=O)c1cccnc1CCO [Compound 1, (S)-2-hydroxy-6-((1-(2-(2-hydroxyethyl)nicotinoyl)piperidin-2-yl)methoxy)benzaldehyde] | N^1 (PXR activation < 2.5-fold) | – | 162 | 58 h | 77.3%
7 | O=Cc1c(O)cccc1OC[C@@H]1COCCN1C(=O)c1cccnc1CO [Compound 12, (S)-2-hydroxy-6-((4-(2-(hydroxymethyl)nicotinoyl)morpholin-3-yl)methoxy)benzaldehyde] | – | N (PXR activation < 2.5-fold) | 131 | 58 h | 76.7%

Reference: patent publication US11548880B2, “Modulators of hemoglobin” (Global Blood Therapeutics, Inc., priority 2018, dated 2023)
